Reference: article PMC6831561, “Pharmacological and Behavioral Effects of the Synthetic Cannabinoid AKB48 in Rats” (Frontiers in Neuroscience, 2019)

Legend:
Assay type in all cases: in vivo
rats [1] = assay: Visual placing response test
Text: Visual response was verified by two behavioral tests that evaluated the ability of the rat to capture visual information even when stationary (the visual object response) or when moving (the visual placing response). The visual object response test was used to evaluate the ability of the rat to see an object approaching from the front or the side, inducing the animal to shift or turn its head or to retreat (modified from [Ossato et al., 2015]; [Marti et al., 2019]). For the frontal visual response, a white horizontal bar was moved frontally to the rat’s head; the maneuver was repeated three times. For the lateral visual response, a small dentist’s mirror was moved into the rat’s field of view in a horizontal arc until the stimulus was between the rat’s eyes. The procedure was conducted bilaterally and was repeated three times. The score assigned was a value of 1 if there was a reflection in the rat movement or 0 if not. The total value was calculated by adding the scores obtained in the frontal with that obtained in the lateral visual object response (overall score 9). Evaluation of the visual object response was measured at 0, 10, 30, 60, 120, and 180 min post-injection. The visual placing response test was performed using a tail suspension-modified apparatus able to bring the rat toward the floor at a constant speed of 10 cm/sec (modified from [Ossato et al., 2015]; [Marti et al., 2019]). The downward movement of the rat was videotaped. Frame-by-frame analysis allowed us to evaluate the beginning of the reaction of the rat while it was close to the floor. When the rat started the reaction, an electronic ruler evaluated the perpendicular distance in millimeters between the eyes of the rat to the floor. The naïve rats perceived the floor and prepared for contact at a distance of about 27 ± 4.5 mm. Evaluation of the visual placing response was measured at 0, 15, 35, 65, 125, and 190 min post-injection.

rats [2] = assay: Acoustic response test
Description: Acoustic response measures the reflex of the rat in reply to an acoustic stimulus produced behind the animal. Four acoustic stimuli of different intensities and frequencies were tested (see [Marti et al., 2019]). Each sound test was repeated three times, giving a value of 1 if there was a response and 0 if not present, for a total score of 3 for each sound. The acoustic total score was calculated by adding scores obtained in the four tests (overall score 12). Evaluation of the […] was measured at 0, 10, 30, 60, 120, and 180 min post-injection.

rats [3] = assay: Overall tactile response (vibrissae, pinna, corneal reflexes)
Description: Tactile responses were verified through vibrissae, pinna, and corneal reflexes ([Marti et al., 2019]), and data were expressed as the sum of these parameters. The vibrissae reflex was evaluated by touching the vibrissae (right and left) with a thin hypodermic needle once per side, giving a value of 1 if there was a reflex (turning of the head to the side of touch or vibrissae movement) or 0 if not present (overall score 2). Evaluation of the vibrissae reflex was measured at 0, 10, 30, 60, 120, and 180 min post-injection. The pinna reflex was assessed by touching the pavilions (left and right) with a thin hypodermic needle, the interior pavilions first. This test was repeated twice per side, giving a value of 1 if there was a reflex and 0 if not present (overall score 4). Evaluation of the pinna reflex was measured at 0, 10, 30, 60, 120, and 180 min post-injection. The corneal reflex was assessed by gently touching the cornea with a thin hypodermic needle and evaluating the response, assigning a value of 1 if the rat moved only its head, 2 if it only closed its eyelid, and 3 if it closed its lid and moved its head. The procedure was conducted bilaterally (overall score 6) and was measured at 0, 10, 30, 60, 120, and 180 min post-injection.

rats [4] = assay: Core and surface body temperature
Description: To better assess the effects of the ligands on thermoregulation, we measured both changes in the core (rectal) and surface (ventral fur) temperature. The core temperature was evaluated by a probe (1 mm diameter) that was gently inserted, after lubrication with liquid Vaseline, into the rectum of the rat (to about 2 cm) and left in position until the stabilization of the temperature (about 10 sec; [De Luca et al., 2015]; [Vigolo et al., 2015]). The probe was connected to a Cole Parmer digital thermometer, model 8402. The surface temperature was measured by a Microlife FR 1DZ1 digital infrared thermometer, placed 1 cm from the surface of the abdomen of the rat ([Vigolo et al., 2015]). Core and surface body temperatures were measured at 0, 15, 35, 65, 125, and 190 min.

rats [5] = assay: Tail pinch test (acute mechanical nociception)
Description: Acute mechanical nociception was evaluated using the tail pinch tests (modified by [Vigolo et al., 2015]). A special rigid probe connected to a digital dynamometer (ZP-50N, IMADA, Japan) was gently placed on the tail (in the distal portion), and progressive pressure was applied. When the rat flicked its tail, the pressure was stopped, and the digital instrument saved the maximum peak of weight supported (g/force). A cut-off (500 g/force) was set to avoid tissue damage. The test was repeated three times, and the final value was calculated with the average of three obtained scores. Acute mechanical nociception was measured at 0, 20, 40, 70, 140, and 195 min post-injection.

rats [6] = assay: Conditioned place preference paradigm
Text: The CPP chambers consisted of two equally sized compartments interconnected by a guillotine door, adopting a classical conditioning procedure that has been successfully used to assess the rewarding properties of several drugs of abuse. The compartments are differentiated by both visual and tactile cues: the color of the walls in each compartment (white or black) and the texture of the floors (wooden flat or metal wired). The box was placed in a dimly illuminated room. Place conditioning morning sessions ran from 8:30 a.m. to noon, while afternoon sessions ran from 2:30 p.m. to 6 p.m.
According to the conditioned place preference paradigm, on day 0 (pre-test), rats freely explored the two compartments for 15 min, and the time spent in each compartment during the exploratory period was measured. Rats that spent 60–70% of the total time on one side were excluded from the experiment. We used an unbiased-like protocol and assigned the drug-paired compartment randomly. On days 1–3 (conditioning phase), male Sprague-Dawley rats (n = 24) were divided into three groups (n = 8 per group) and given injections of AKB48 (0.1 or 0.5 mg/kg) or vehicle twice daily (9:00 a.m. to 7:00 p.m.) and confined to one compartment for 30 min for 3 days. During these conditioning trials, the animals developed an association between the subjective state produced by the drug and the environmental cues present in the compartment in which they received the drug. On day 4 (test day), rats were allowed to explore the two compartments freely for 15 min, and the time spent in each compartment during the exploratory period was measured.
To evaluate if the aversive effect obtained with the higher dose of AKB48 (0.5 mg/kg) was mediated by activation of CB1 cannabinoid receptors, male Sprague-Dawley rats (n = 32) were divided into four groups (n = 8 per group). Group 1 received AKB48 vehicle in both compartments and served as a control. […] CB1 antagonist was injected 20 min before the agonist AKB48, which was given 10 min prior to the test.

[7] = AM251 1 mg/kg i.p. before AKB48 3 mg/kg
[8] = AM251 1 mg/kg i.p. alone (data not shown)
[9] = AM251 1 mg/kg i.p. before AKB48 3 mg/kg i.p.
[10] = AKB48, only at the highest dose (3 mg/kg i.p.)
[11] = AKB48 highest dose (3 mg/kg i.p.)

Cc1c(C(=O)NN2CCCCC2)nn(-c2ccc(Cl)cc2Cl)c1-c1ccc(I)cc1 [AM251, 1-(2,4-dichlorophenyl)-5-(4-iodophenyl)-4-methyl-N-(piperidin-1-yl)-1H-pyrazole-3-carboxamide, reference compound]
visual placing response, AM251 alone (rats [1]; AM251 1 mg/kg i.p. alone): did not alter
visual impairment (placing) induced by AKB48, after AM251 pre-treatment (rats [1]; [7]): prevented
acoustic response, AM251 alone (rats [2]; [8]): did not alter
inhibition of acoustic response induced by AKB48, after AM251 pre-treatment (rats [2]; [9]): prevented
response to AM251 alone in the tactile response section (rats [3]; [8]): did not alter
inhibition of overall tactile response induced by AKB48, after AM251 pre-treatment (rats [3]; [9]): prevented
response to AM251 alone in the body temperature section (rats [4]; AM251 1 mg/kg i.p. alone): did not alter
hypothermia induced by AKB48, after AM251 pre-treatment (rats [4]; [9]): prevented
threshold to acute mechanical pain stimuli, AM251 alone (rats [5]; AM251 1 mg/kg i.p. alone): did not alter
AKB48 effect on mechanical pain threshold, after AM251 pre-treatment (rats [5]; [7]): prevented
aversive effect of AKB48 on place preference, with AM251 (rats [6]; AM251 1 mg/kg i.p. + AKB48 0.5 mg/kg): blocked

CCCCCn1nc(C(=O)NC23CC4CC(CC(C4)C2)C3)c2ccccc21 [AKB48, N-(1-adamantyl)-1-pentyl-1H-indazole-3-carboxamide]
persistence of the reduction of visual placing response (rats [1]; AKB48 3 mg/kg i.p.): up to 190 min
visual placing response (rats [1]; AKB48 0.1–3 mg/kg i.p., 190 min observation): reduced
acoustic response (rats [2]; [10]): reduced
persistence of the reduction of acoustic response (rats [2]; [11]): up to 120 min
reduction of overall tactile response (rats [3]; [10]): ~23%
persistence of the reduction of tactile response (rats [3]; [11]): up to 60 min
time at which the core temperature effect was evident (rats [4]; AKB48 3 mg/kg i.p.): 65 min
surface body temperature (rats [4]; AKB48 0.1–3 mg/kg i.p.): did not affect
core body temperature (rats [4]; AKB48, only at 3 mg/kg i.p.): reduced
threshold to acute mechanical pain stimulus (tail pinch test) (rats [5]; AKB48 0.1–3 mg/kg i.p.): slightly increased
conditioned place preference (rats [6]; AKB48 0.1 mg/kg): ineffective
conditioned place preference (rats [6]; AKB48 0.5 mg/kg): significant aversive effect
